# Experiments:
# Type in all cases: in vivo, rabbit
# platelet aggregation = assay: Platelet aggregation in rabbits, intravenous maintenance administration
# Protocol: (§1) 2. Grouping and administration: 10 rabbits were randomly divided into 3 groups, 2 to 3 rabbits per group. 1) Sham operation group (NS): Intravenous injection of the same volume of physiological saline, with the same operation method as above; 2) polypeptide 2 administration group: 8.0 mg/kg+20.0 mg/kg/h; 3) positive control enoxaparin group: 50 U/kg+150 U/kg/h. According to the body weight in kilograms of the rabbits, the first dose of the drug to be tested was dissolved in 2 mL of physiological saline for single bolus injection. The maintaining dose was dissolved in 9 ml of physiological saline, and placed in a double-channel micro-injection pump, which was dripped off within 90 minutes at a dripping speed of […]. The sham operation group was administered with the same volume of physiological saline.
# (§2) 3.1 Surgery preparation of rabbits: Rabbits were sent to the laboratory for accommodation for one day, and then screened at first. Blood samples were taken from arteries within ears, which were subjected to blood routine analysis and APTT assay, and the rabbits with normal blood hemateikon and APTT between 16s to 28s were selected for experiments. The rabbits to be tested were fasted with free access to water for the night before the experiment. The rabbits were anesthetized with intravenous injection of 3% sodium pentobarbital solution at 1 ml/kg, fixed in the supine position, and then, the common carotid artery at one side, external jugular vein, femoral artery at one side, femoral vein, and forelimb vein at one side were isolated. The forelimb vein was subjected to intubation for administration; the left femoral vein was subjected to intubation for blood collection to determine the platelet aggregation rate; the femoral artery was used for the establishment of an arterial thrombosis model; the common carotid artery and external jugular vein were used for the establishment of an arterial and venous bypass thrombosis model.
# 4.1 Platelet aggregation rate: At points of 0 min before administration; 30 min. 60 min, 90 min for administration; 60 min, 120 min, 180 min after administration was terminated, 2.7 ml blood samples were taken from the femoral vein, rapidly injected into a centrifuge tube containing 0.3 ml of 3.8% sodium citrate solution, and fully mixed well. The resulted blood samples were centrifuged at 810 rpm (100 g) for 8 min to obtain PRP, and was centrifuged at 3500 rpm (1863 g) for 8 min to obtain PPP which was used to determine platelet aggregation.
# Blood samples were taken before administration (0 min), 5 min and 15 min after administration, respectively, to determine the platelet aggregation rate which was used to calculate the inhibitory rate of platelet aggregation with a calculation equation as follows: […]
# [1] = system: blood coagulation function; assay: PT in rabbits, intravenous maintenance administration
# Protocol: as §1
# (§3) 4.2 Determination of blood coagulation function: Blood samples were taken and the blood function (PT, APTT) was determined at 0 min before administration, at points of 30 min, 60 min, 90 min after administration, and at points of 60 min, 120 min and 180 min after termination of administration, using a platelet-aggregation coagulation factor analyzer. Blood samples were centrifuged at 3510 rpm for 8 min to obtain platelet poor plasma (PPP). Reagent reconstruction and preservation were performed according to the operation requirements of the kit. Immediately after each blood sample was placed into a test cup and then added with PT, TT and APTT reagents, the test was started. After the test was completed, results were recorded.
# [2] = system: FeCl3-induced femoral artery thrombosis; assay: FeCl3-induced femoral artery thrombosis in rabbits, intravenous maintenance administration
# Protocol: as §1, §2
# 3.2 Arterial thrombosis (AT) model: A small piece of a filter paper (1 cm×1.5 cm) absorbed with 50% FeCl3 solution was applied onto the right femoral artery while administration, below which a small piece of a plastic film (2.5 cm×2.0 cm) was placed to protect surrounding tissues. After 10 minutes, the filter paper was removed, and then, the blood vessels and local tissues were rinsed with warm physiological saline, and the covered blood vessels were cut off. The thrombus which attached to the blood vessel walls was peeled off to be weighed on a tin foil for its wet weight, and then kept overnight at room temperature and weighed for its dry weight.
# 3.3 Experimental Procedures: The femoral arteries in the […] and both sides in the rabbits were isolated and stabilized for 10 minutes before the administration was started. An AT model was established by covering the femoral artery with a 50% FeCl3 filter paper while administration, and the filter paper was removed after 15 minutes. Observation was continued for 120 min after administration until the experiment was completed.
# 4.4 Thrombus weight: After the experiment was completed, the segment of the blood vessels in which there had been thrombus formation was cut off, weighed for the wet weight, and then kept overnight at room temperature and weighed for the dry weight. The thrombosis inhibitory rate was calculated with a calculation equation as follows: […]
# whole blood coagulation = assay: ACT in rabbits, intravenous maintenance administration
# Protocol: as §1, with “saline. […]” for “saline.”
# [3] = system: blood coagulation function; assay: APTT in rabbits, intravenous maintenance administration
# Protocol: as §1, §3
# [4] = system: blood coagulation function; assay: TT in rabbits, intravenous maintenance administration
# Protocol: as §1, §3
# [5] = iv 50 U + 150 U, Administration 30 min
# [6] = iv 50 U + 150 U, Administration 60 min
# [7] = iv 50 U + 150 U, Administration 90 min
# [8] = iv 50 U + 150 U, Before administration
# [9] = iv 50 U + 150 U, Termination 60 min
# [10] = iv 50 U + 150 U, Termination 120 min
# [11] = iv 50 U + 150 U, Termination 180 min
# [12] = iv 8.0 + 20.0 (mg/kg+mg/kg/h), Administration 30 min
# [13] = iv 8.0 + 20.0 (mg/kg+mg/kg/h), Administration 60 min
# [14] = iv 8.0 + 20.0 (mg/kg+mg/kg/h), Administration 90 min
# [15] = iv 8.0 + 20.0 (mg/kg+mg/kg/h), Before administration
# [16] = iv 8.0 + 20.0 (mg/kg+mg/kg/h), Termination 60 min
# [17] = iv 8.0 + 20.0 (mg/kg+mg/kg/h), Termination 120 min
# [18] = iv 8.0 + 20.0 (mg/kg+mg/kg/h), Termination 180 min
# [19] = iv 8.0 + 20.0 (mg/kg + mg/kg/h)
substance,measurement,setting,value
Enoxaparin,inhibitory rate of platelet aggregation,"platelet aggregation; iv 50 U + 150 U, 60 min after termination",0.00%
same,inhibitory rate of platelet aggregation,"platelet aggregation; iv 50 U + 150 U, 120 min after termination",41.9%
same,inhibitory rate of platelet aggregation,"platelet aggregation; iv 50 U + 150 U, Administration for 30 min",26.7%
same,inhibitory rate of platelet aggregation,"platelet aggregation; iv 50 U + 150 U, Administration for 60 min",0.00%
same,inhibitory rate of platelet aggregation,"platelet aggregation; iv 50 U + 150 U, Administration for 90 min",35.27%
same,PT,[1]; [5],10.4 S
same,PT,[1]; [6],10.4 S
same,PT,[1]; [7],11.3 S
same,PT,[1]; [8],9.4 S
same,PT,[1]; [9],8.2 S
same,PT,[1]; [10],8.1 S
same,PT,[1]; [11],7.6 S
same,Thrombus inhibitory rate Dry weight,[2]; iv 50 U + 150 U (U/kg+U/kg/h),10 ± 4.2%
same,Thrombus inhibitory rate Wet weight,[2]; iv 50 U + 150 U (U/kg+U/kg/h),40 ± 5.7%
same,Thrombus weight Dry weight,[2]; iv 50 U + 150 U (U/kg+U/kg/h),2.3 ± 2.1 mg
same,Thrombus weight Wet weight,[2]; iv 50 U + 150 U (U/kg+U/kg/h),3.9 ± 4.0 mg
same,ACT,whole blood coagulation; [5],225.0 S
same,ACT,whole blood coagulation; [6],375.0 S
same,ACT,whole blood coagulation; [7],270.0 S
same,ACT,whole blood coagulation; [8],180.0 S
same,ACT,whole blood coagulation; [9],210 S
same,ACT,whole blood coagulation; [10],195.0 S
same,ACT,whole blood coagulation; [11],225.0 S
same,APTT,[3]; [5],32.4 S
same,APTT,[3]; [6],36.2 S
same,APTT,[3]; [7],38.3 S
same,APTT,[3]; [8],25.7 S
same,APTT,[3]; [9],30.5 S
same,APTT,[3]; [10],62.1 S
same,APTT,[3]; [11],41.6 S
same,TT,[4]; [5],>180 s
same,TT,[4]; [6],>180 s
same,TT,[4]; [7],18.9 S
same,TT,[4]; [8],20.5 S
same,TT,[4]; [9],21.0 S
same,TT,[4]; [10],29.0 S
same,TT,[4]; [11],24.0 S
D-Phe Pro Arg Pro Gly Gly Gly Gly Asn Gly Asp Phe Glu Glu Ile Pro Glu Glu Tyr Leu Glu Ala Ala Ala Lys Cys Har Gly Asp Trp Pro Cys [Polypeptide 2],inhibitory rate of platelet aggregation,"platelet aggregation; iv 8.0 + 20.0 (mg/kg + mg/kg/h), 60 min after termination",14.1 ± 3.5%
same,inhibitory rate of platelet aggregation,"platelet aggregation; iv 8.0 + 20.0 (mg/kg + mg/kg/h), 120 min after termination",7.5 ± 1.8%
same,inhibitory rate of platelet aggregation,"platelet aggregation; iv 8.0 + 20.0 (mg/kg + mg/kg/h), 180 min after termination",47.5 ± 2.5%
same,inhibitory rate of platelet aggregation,"platelet aggregation; iv 8.0 + 20.0 (mg/kg + mg/kg/h), Administration for 30 min",61.0 ± 14.1%
same,inhibitory rate of platelet aggregation,"platelet aggregation; iv 8.0 + 20.0 (mg/kg + mg/kg/h), Administration for 60 min",72.1 ± 9.6%
same,inhibitory rate of platelet aggregation,"platelet aggregation; iv 8.0 + 20.0 (mg/kg + mg/kg/h), Administration for 90 min",55.8 ± 7.7%
same,PT,[1]; [12],12.7 ± 0.5 S
same,PT,[1]; [13],9.4 ± 2.0 S
same,PT,[1]; [14],11.6 ± 1.3 S
same,PT,[1]; [15],7.7 ± 1.8 S
same,PT,[1]; [16],7.7 ± 0.0 S
same,PT,[1]; [17],7.1 ± 1.8 S
same,PT,[1]; [18],7.4 ± 1.3 S
same,Thrombus inhibitory rate Dry weight,[2]; [19],84.9 ± 2.3%
same,Thrombus inhibitory rate Wet weight,[2]; [19],75.6 ± 3.8%
same,Thrombus weight Dry weight,[2]; [19],3.2 ± 2.0 mg
same,Thrombus weight Wet weight,[2]; [19],14.2 ± 10.2 mg
same,ACT,whole blood coagulation; [12],330.0 ± 63.6 S
same,ACT,whole blood coagulation; [13],277.5 ± 31.8 S
same,ACT,whole blood coagulation; [14],300.0 ± 63.6 S
same,ACT,whole blood coagulation; [15],217.5 ± 95.5 S
same,ACT,whole blood coagulation; [17],172.5 ± 31.8 S
same,ACT,whole blood coagulation; [18],112.5 ± 74.2 S
same,APTT,[3]; [12],38.0 ± 2.3 S
same,APTT,[3]; [13],32.5 ± 1.0 S
same,APTT,[3]; [14],34.1 ± 3.7 S
same,APTT,[3]; [15],22.7 ± 1.7 S
same,APTT,[3]; [16],35.7 ± 14.0 S
same,APTT,[3]; [17],33.2 ± 2.7 S
same,APTT,[3]; [18],23.3 ± 1.6 S
same,TT,[4]; [15],26.8 ± 15.5 S
same,TT,[4]; [17],150.6 ± 3.5 S
same,TT,[4]; [18],28.2 ± 1.9 S
